The results in this text go back to PubChem BioAssay AID330 (DTP/NCI, 2004).

Inconclusive results and toxic doses are left out.

For this test, the system named is P388 leukemia ip, CD2F1 mice, survival T/C. Put plainly: NCI In Vivo Anticancer Drug Screen. Data for tumor model P388 Leukemia (intraperitoneal) in CD2F1 (CDF1) mice. The settings on record: endpoint: median survival time, higher = longer survival. Put shortly: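 Mice carrying the transplanted tumor received test compound or vehicle. Survival was recorded in each group, and the value is the treated-group measurement divided by that of the vehicle-treated control group.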

Setting [1] is: dose: 60.0 mg/kg/injection, schedule: Q01DX005 (ip), vehicle: Klucel (hydroxypropylcellulose) (HPC).
[2] abbreviates: dose: 120.0 mg/kg/injection, schedule: Q01DX005 (ip), vehicle: Klucel (hydroxypropylcellulose) (HPC).
Where [3] appears, read: dose: 60.0 mg/kg/injection, schedule: Q01DX005 (ip), vehicle: saline with Tween-80.
Setting [4] is: dose: 240.0 mg/kg/injection, schedule: Q01DX005 (ip), vehicle: saline with Tween-80.
Where [5] appears, read: dose: 50.0 mg/kg/injection, schedule: Q01DX009 (ip), vehicle: saline with Tween-80.
Where [6] appears, read: dose: 100.0 mg/kg/injection, schedule: Q01DX009 (ip), vehicle: saline with Tween-80.
Setting [7] is: dose: 200.0 mg/kg/injection, schedule: Q01DX009 (ip), vehicle: saline with Tween-80.
Setting [8] is: dose: 25.0 mg/kg/injection, schedule: Q01DX005 (ip), vehicle: water.
[9] abbreviates: dose: 50.0 mg/kg/injection, schedule: Q01DX005 (ip), vehicle: water.

`CCCn1c2ccccc2c2ccccc21`: the T/C (dose: 100.0 mg/kg/injection, schedule: Q04DX003 (ip), vehicle: Klucel (hydroxypropylcellulose) (HPC)) was 104 % of control; the T/C (dose: 200.0 mg/kg/injection, schedule: Q04DX003 (ip), vehicle: Klucel (hydroxypropylcellulose) (HPC)) was 104 % of control; the T/C (dose: 400.0 mg/kg/injection, schedule: Q04DX003 (ip), vehicle: Klucel (hydroxypropylcellulose) (HPC)) was 100 % of control.
Take `NC(=S)N=Nc1c(O)n(CCCO)c2ccccc12`: the T/C reads like this: under setting [1], 93 % of control; under setting [2], 100 % of control.
Take `COc1ccccc1C1C2CCCC(C2=O)C(c2ccccc2OC)N1C` (stereo unspecified): the T/C was 98 % of control (dose: 100.0 mg/kg/injection, schedule: Q04DX003 (ip), vehicle: saline); 99 % of control (dose: 200.0 mg/kg/injection, schedule: Q04DX003 (ip), vehicle: saline); 99 % of control (dose: 400.0 mg/kg/injection, schedule: Q04DX003 (ip), vehicle: saline).
For the molecule `Cc1c(-c2ccccc2)n[nH]c1-c1[nH]nc(-c2ccccc2)c1C`, the T/C was 93 % of control under setting [1]; 94 % of control under setting [2]; 93 % of control (dose: 240.0 mg/kg/injection, schedule: Q01DX005 (ip), vehicle: Klucel (hydroxypropylcellulose) (HPC)).
Turning to `Cc1cccc(C)c1NC(=O)Nc1cccc(C#N)c1`, the T/C is, setting by setting: (dose: 15.0 mg/kg/injection, schedule: Q01DX005 (ip), vehicle: saline with Tween-80) 91 % of control; (dose: 30.0 mg/kg/injection, schedule: Q01DX005 (ip), vehicle: saline with Tween-80) 95 % of control; under setting [3], 91 % of control; under setting [4], 89 % of control.
Regarding `CCOC(=O)c1c(C2OC(CO)C(O)C2O)cn(C)c1-c1ccccc1` (stereo unspecified), the T/C is 103 % of control (dose: 50.0 mg/kg/injection, schedule: Q01DX001 (ip), vehicle: Klucel (hydroxypropylcellulose) (HPC)); 98 % of control (dose: 100.0 mg/kg/injection, schedule: Q01DX001 (ip), vehicle: Klucel (hydroxypropylcellulose) (HPC)); 98 % of control (dose: 200.0 mg/kg/injection, schedule: Q01DX001 (ip), vehicle: Klucel (hydroxypropylcellulose) (HPC)).
In the case of `O=C(O)C1CCCCC1Cc1ccccc1` (stereo unspecified), the T/C by setting is: under setting [5], 109 % of control; under setting [6], 98 % of control; under setting [7], 93 % of control.
As to `Fc1ccc(CSC(=S)Nc2ccc(I)cc2)cc1`, the T/C reads like this: (dose: 50.0 mg/kg/injection, schedule: Q01DX009 (ip), vehicle: suspension in saline) 97 % of control; (dose: 100.0 mg/kg/injection, schedule: Q01DX009 (ip), vehicle: suspension in saline) 93 % of control; (dose: 200.0 mg/kg/injection, schedule: Q01DX009 (ip), vehicle: suspension in saline) 103 % of control.
With `CCOC1OCN(C2CCCCC2)CC1(C)C` (stereo unspecified), the T/C under setting [5] was 109 % of control and the T/C under setting [7] is 110 % of control.
Regarding `CC(O)(CC(=O)O)CC(=O)O`, the T/C was 101 % of control under setting [8]; 100 % of control under setting [9]; 95 % of control (dose: 100.0 mg/kg/injection, schedule: Q01DX005 (ip), vehicle: water); 90 % of control (dose: 200.0 mg/kg/injection, schedule: Q01DX005 (ip), vehicle: water); 92 % of control (dose: 400.0 mg/kg/injection, schedule: Q01DX005 (ip), vehicle: water).
Turning to `O=C1c2ccccc2C(=O)N1/N=N/N1C(=O)c2ccccc2C1=O`, the T/C is, setting by setting: (dose: 25.0 mg/kg/injection, schedule: Q01DX005 (ip), vehicle: Klucel (hydroxypropylcellulose) (HPC)) 99 % of control; (dose: 50.0 mg/kg/injection, schedule: Q01DX005 (ip), vehicle: Klucel (hydroxypropylcellulose) (HPC)) 102 % of control; (dose: 100.0 mg/kg/injection, schedule: Q01DX005 (ip), vehicle: Klucel (hydroxypropylcellulose) (HPC)) 110 % of control; (dose: 200.0 mg/kg/injection, schedule: Q01DX005 (ip), vehicle: Klucel (hydroxypropylcellulose) (HPC)) 106 % of control.
Consider `CCC(C)(OC(C)=O)C(=O)OC1C(=O)OC2CC3C(C)=CC(O)C(O)C3(C)C3C4(O)OCC23C1C(C)C4O` (stereo unspecified), for which the T/C runs as follows: (dose: 0.25 mg/kg/injection, schedule: Q01DX009 (ip), vehicle: saline + alcohol) 103 % of control; (dose: 0.5 mg/kg/injection, schedule: Q01DX009 (ip), vehicle: saline + alcohol) 96 % of control; (dose: 1.0 mg/kg/injection, schedule: Q01DX009 (ip), vehicle: saline + alcohol) 96 % of control; (dose: 2.0 mg/kg/injection, schedule: Q01DX009 (ip), vehicle: saline + alcohol) 96 % of control; (dose: 4.0 mg/kg/injection, schedule: Q01DX009 (ip), vehicle: saline + alcohol) 99 % of control.
Turning to `O=[N+]([O-])c1ccc(N2N=N[C@@H]3C4CCC(C4O)[C@@H]32)cc1` (stereo partly specified), the T/C is 88 % of control under setting [5], 97 % of control under setting [6] and 89 % of control under setting [7].
Take `Cc1c2c(C(N)=O)nccc2c(C)c2c1c1ccccc1n2Cc1ccccc1`: the T/C (dose: 1.56 mg/kg/injection, schedule: Q04DX003 (ip), vehicle: distilled water + Tween-80) is 89 % of control; the T/C (dose: 3.13 mg/kg/injection, schedule: Q04DX003 (ip), vehicle: distilled water + Tween-80) is 89 % of control; the T/C (dose: 12.5 mg/kg/injection, schedule: Q04DX003 (ip), vehicle: distilled water + Tween-80) was 86 % of control; the T/C (dose: 25.0 mg/kg/injection, schedule: Q04DX003 (ip), vehicle: distilled water + Tween-80) was 87 % of control; the T/C (dose: 50.0 mg/kg/injection, schedule: Q04DX003 (ip), vehicle: distilled water + Tween-80) is 100 % of control; the T/C (dose: 100.0 mg/kg/injection, schedule: Q04DX003 (ip), vehicle: distilled water + Tween-80) was 95 % of control. The T/C (dose: 200.0 mg/kg/injection, schedule: Q04DX003 (ip), vehicle: distilled water + Tween-80) was 101 % of control.
`C=CC1=C(C)C2=NC1=CC1=NC(=CC3=C(C)C4=C(O)C(C(=O)OC)C(=C5NC(=C2)C(C)C5CCC(=O)OC/C=C(\C)CCCC(C)CCCC(C)CCCC(C)C)C4=N3)C(CC)=C1C` (stereo unspecified): the T/C is 90 % of control (dose: 50.0 mg/kg/injection, schedule: Q01DX005 (ip), vehicle: saline with Tween-80); 92 % of control (dose: 100.0 mg/kg/injection, schedule: Q01DX005 (ip), vehicle: saline with Tween-80); 92 % of control (dose: 200.0 mg/kg/injection, schedule: Q01DX005 (ip), vehicle: saline with Tween-80).
Turning to `CCOc1cc2c(cc1C(C)c1ccc(O)c(OC)c1)OCO2` (stereo unspecified), the T/C (dose: 50.0 mg/kg/injection, schedule: Q01DX005 (ip), vehicle: distilled water + Tween-80) was 99 % of control; the T/C (dose: 100.0 mg/kg/injection, schedule: Q01DX005 (ip), vehicle: distilled water + Tween-80) is 101 % of control; the T/C (dose: 200.0 mg/kg/injection, schedule: Q01DX005 (ip), vehicle: distilled water + Tween-80) was 104 % of control.
`[Cl][Pt][Cl].[NH-]C(CO)C(=O)O` (stereo unspecified): the T/C is, setting by setting: (dose: 6.25 mg/kg/injection, schedule: Q01DX005 (ip), vehicle: water) 119 % of control; (dose: 12.5 mg/kg/injection, schedule: Q01DX005 (ip), vehicle: water) 113 % of control; under setting [8], 122 % of control; under setting [9], 153 % of control.
Take `CS(=O)(=O)OCC(O)C(O)CI` (stereo unspecified): the T/C was 109 % of control (dose: 25.0 mg/kg/injection, schedule: Q01DX005 (ip), vehicle: saline); 104 % of control (dose: 50.0 mg/kg/injection, schedule: Q01DX005 (ip), vehicle: saline); 111 % of control (dose: 100.0 mg/kg/injection, schedule: Q01DX005 (ip), vehicle: saline).
With `N#CCc1nc2ccccc2nc1Cl`, the T/C runs as follows: (dose: 50.0 mg/kg/injection, schedule: Q01DX009 (ip), vehicle: distilled water + Tween-80 + alcohol) 100 % of control; (dose: 100.0 mg/kg/injection, schedule: Q01DX009 (ip), vehicle: distilled water + Tween-80 + alcohol) 94 % of control.
For `O=C(NCc1ccco1)Nc1c(Cl)cc(Cl)cc1Cl`, the T/C is 103 % of control under setting [3]; 100 % of control (dose: 120.0 mg/kg/injection, schedule: Q01DX005 (ip), vehicle: saline with Tween-80); 100 % of control under setting [4].
Regarding `CN(C)Cc1c(N=Nc2cccc3c(N=Nc4[nH]c5ccccc5c4CN(C)C)cccc23)[nH]c2ccccc12`, the T/C is 110 % of control under setting [5], 108 % of control under setting [6] and 89 % of control under setting [7].
